Consider 36 compounds from patent US7662825B2, “N-pyrazinyl-phenylsulphonamides and their use in the treatment of chemokine mediated diseases” (AstraZeneca AB, priority 2002, dated 2010).

The compound `CNC(=O)CSc1cnc(NS(=O)(=O)c2cccc(Cl)c2Cl)c(OC)n1` [Example 168, 2-[5-(2,3-Dichlorobenzenesulphonylamino)-6methoxy-2-pyrazinylsulphanyl]-N-methylacetamide] yielded a melting point of 150 to 152 °C.
To `COc1nc(SCC(N)=O)cnc1NS(=O)(=O)c1cccc(Cl)c1Cl` [Example 169, 2-[5-(2,3-Dichlorobenzenesulphonylamino)-6-methoxy-2-pyrazinylsulphanyl]acetamide] belongs 163 to 164 °C; to `COc1nc(SCc2ccc(F)cc2)cnc1NS(=O)(=O)c1cccc(Cl)c1Cl` [Example 170, 2,3-Dichloro-N-[5-(4-fluorobenzylsulphanyl)-3-methoxy-2-pyrazinyl]benzenesulphonamide], 119 to 120 °C; to `COc1nc(SCC#N)cnc1NS(=O)(=O)c1cccc(Cl)c1Cl` [Example 171, 2,3-Dichloro-N-[5-cyanomethylsulphanyl-3-methoxy-2-pyrazinyl]benzenesulphonamide], 158 to 159 °C.
Turning to `COc1nc(SCc2ncon2)cnc1NS(=O)(=O)c1cccc(Cl)c1Cl` [Example 172, 2,3-Dichloro-N-[3-methoxy-5-([1,2,4]-3-oxadiazolylmethylsulphanyl)-2-pyrazinyl]benzenesulphonamide], the melting point fell in the range of 154 to 156 °C.
In turn, `COc1nc(SCCN)cnc1NS(=O)(=O)c1cccc(Cl)c1Cl` [Example 173, N-[5-(2-Aminoethylsulphanyl)-3-methoxy-2-pyrazinyl]-2,3-dichlorobenzenesulphonamide] had a melting point of 189 to 190 °C.
To `COc1nc(OCc2cc(C)on2)cnc1NS(=O)(=O)c1cccc(Cl)c1Cl` [Example 174] belongs 142 to 143 °C.
`COc1nc(OCc2ccc(CN(C)C)o2)cnc1NS(=O)(=O)c1cccc(Cl)c1Cl` [Example 175, 2,3-Dichloro-N-[5-(5-dimethylaminomethyl-2-furanylmethoxy)-3-methoxy-2-pyrazinyl]benzenesulphonamide] returned a melting point of 114 to 115 °C.
To `CN(C)Cc1ccc(COc2nc(Br)cnc2NS(=O)(=O)c2cccc(Cl)c2Cl)o1` [Example 176, N-[5-Bromo-3-(5-dimethylaminomethyl-2-furanylmethoxy)-2-pyrazinyl]-2,3-dichloro-benzenesulphonamide] belongs 206 to 207 °C; to `COc1nc(SCCO)cnc1NS(=O)(=O)c1cccc(Cl)c1Cl` [Example 177, 2,3-Dichloro-N-[5-(2-hydroxyethylsulphanyl)-3-methoxy-2-pyrazinyl]benzenesulphonamide], 180 to 181 °C.
Turning to `CN(C)Cc1ccc(COc2ncc(Cl)nc2NS(=O)(=O)c2cccc(Cl)c2Cl)o1` [Example 180, 2,3-Dichloro-N-[6-chloro-3-(5-dimethylaminomethyl-2-furanylmethoxy)-2-pyrazinyl]benzenesulphonamide], the melting point was 209 to 210 °C.
On to `CN(C)Cc1ccc(COc2nc(Cl)cnc2NS(=O)(=O)c2cccc(Cl)c2Cl)o1` [Example 182, 2,3-Dichloro-N-[5-chloro-3-(5-dimethylaninomethyl-2-furanylmethoxy)-2-pyrazinyl]benzenesulphonamide], for which the melting point fell in the range of 209 to 210 °C.
To `CNCc1ccc(COc2nccnc2NS(=O)(=O)c2cccc(Cl)c2Cl)o1` [Example 183, 2,3-Dichloro-N-[3-(5-methylaminomethyl-2-furanylmethoxy)-2-pyrazinyl]benzenesulphonamide] belongs 198 to 199 °C; to `COc1nc(Br)cnc1NS(=O)(=O)c1ccccc1C#N` [Example 184, N-(5-Bromo-3-methoxypyrazinyl)-2-cyanobenzenesulphonamide], 190 to 191.5 °C.
To `COc1nc(Br)cnc1NS(=O)(=O)c1ccc(F)c(Cl)c1Cl` [Example 185, N-(5-Bromo-3-methoxypyrazinyl)-2,3-dichloro-4-fluorobenzenesulphonamide] belongs 208 to 211 °C; to `C=CCOc1nc(Cl)cnc1NS(=O)(=O)c1cccc(Cl)c1Cl` [Example 187, N-(3-Allyloxy-5-chloro-2-pyrazinyl)-2,3-dichlorobenzenesulphonamide], 145 to 146 °C.
`C#CCOc1nc(Cl)cnc1NS(=O)(=O)c1cccc(Cl)c1Cl` [Example 188, 2,3-Dichloro-N-[5-chloro-3-(2-propynyloxy)-2-pyrazinyl]benzenesulphonamide] had a melting point of 138 to 139 °C.
On to `C#CCOc1nccnc1NS(=O)(=O)c1cccc(Cl)c1Cl` [Example 189, 2,3-Dichloro-N-[3-(2-propynyloxy)-2-pyrazinyl)benzenesulphonamide], for which the melting point fell in the range of 153 to 154 °C.
To `COc1nc(C#N)cnc1NS(=O)(=O)c1cccc(Cl)c1Cl` [Example 190, 2,3-Dichloro-N-(5-cyano-3-methoxy-2-pyrazinyl)benzenesulphonamide] belongs 239 to 240 °C; to `COc1ncc(C)nc1NS(=O)(=O)c1cccc(Cl)c1Cl` [Example 194, 2,3-Dichloro-N-(3-methoxy-6-methyl-2-pyrazinyl)benzenesulphonamide], 50 to 60 °C; to `COc1nc(Cn2cncn2)cnc1NS(=O)(=O)c1cccc(Cl)c1Cl` [Example 195, 2,3-Dichloro-N-[3-methoxy-5-(1H-1,2,4-triazol-1-ylmethyl)-2-pyrazinyl]benzenesulphonamide], 95 to 105 °C.
To `NCc1ccc(COc2nc(Cl)cnc2NS(=O)(=O)c2cccc(Cl)c2Cl)o1` [Example 196, N-(3-(5-Aminomethyl-2-furanylmethoxy)-5-chloro-2-pyrazinyl)-2,3-dichloro-benzenesulphonamide] belongs 201 to 202 °C.
To `NCc1ccc(COc2nccnc2NS(=O)(=O)c2cccc(Cl)c2Cl)o1` [Example 197, N-(3-(5-Aminomethyl-2-furanylmethoxy)-2-pyrazinyl)-2,3-dichlorobenzenesulphonamide] belongs 199 to 201 °C; to `C#CCOc1cnc(NS(=O)(=O)c2cccc(Cl)c2Cl)c(OC)n1` [Example 198, 2,3-Dichloro-N-[3-methoxy-5-(2-propyn-1-yloxy)-2-pyrazinyl]benzenesulphonamide], 110 to 112 °C.
In turn, `COC(=O)COc1cnc(NS(=O)(=O)c2cccc(Cl)c2Cl)c(OC)n1` [Example 199, {[5-(2,3-Dichlorophenylsulfonylamino)-6-methoxy-2-pyrazinyl]oxy}acetic acid, methyl ester] showed a melting point of 185 to 190 °C.
For `COc1nc(NC(=O)CO)cnc1NS(=O)(=O)c1cccc(Cl)c1Cl` [Example 200, N-[5-(2,3-Dichlorophenylsulphonylamino)-6-methoxy-2-pyrazinyl]-2-hydroxyacetamide], the melting point lay in the range of 153 to 155 °C.
`COC(=O)c1cnc(OC)c(NS(=O)(=O)c2cccc(Cl)c2Cl)n1` [Example 201, 6-(2,3-Dichlorophenylsulphonylamino)-5-methoxy-2-pyrazinecarboxylic acid, methyl ester] gave a melting point of 90 to 92 °C.
To `COc1ncc(CO)nc1NS(=O)(=O)c1cccc(Cl)c1Cl` [Example 202, 2,3-Dichloro-N-[6-(hydroxymethyl)-3-methoxy-2-pyrazinyl]benzenesulphonamide] belongs 153 to 155 °C.
Take `COc1nc(S(C)(=O)=O)cnc1NS(=O)(=O)c1cccc(Cl)c1Cl` [Example 203, 2,3-Dichloro-N-(5-methanesulphonyl-3-methoxy-2-pyrazinyl)benzenesulphonamide]: the melting point fell in the range of 237 to 238 °C.
To `CCN(CC)C(=O)COc1cnc(NS(=O)(=O)c2cccc(Cl)c2Cl)c(OC)n1` [Example 204, 2-[5-(2,3-Dichlorobenzenesulphonylamino)-6-methoxy-2-pyrazinyloxy]-N,N-diethyl-acetamide] belongs 117 to 118 °C; to `COc1nc(SCCN(C)C)cnc1NS(=O)(=O)c1cccc(Cl)c1Cl` [Example 205, 2,3-Dichloro-N-{5-[2-(dimethylamino)ethylsulphanyl]-3-methoxy-2-pyrazinyl]benzenesulphonamide], 117 to 118 °C.
To `COc1nc(C(F)F)cnc1NS(=O)(=O)c1cccc(Cl)c1Cl` [Example 206, 2,3-Dichloro-N-(5-difluoromethyl-3-methoxy-2-pyrazinyl)benzenesulphonamide] belongs 117 to 118 °C; to `COc1nccnc1NS(=O)(=O)c1ccc(F)c(Cl)c1Cl` [Example 207, 2,3-Dichloro-4-fluoro-N-(3-methoxy-2-pyrazinyl)benzenesulphonamide], 192 to 194 °C; to `CC(Oc1nc(Cl)cnc1NS(=O)(=O)c1cccc(Cl)c1Cl)C1CC1` (stereo not drawn) [Example 208], 161 to 162 °C.
As for `O=S(=O)(Nc1ncc(Cl)nc1OCc1ccc(CNC2CC2)o1)c1cccc(Cl)c1Cl` [Example 210, 2,3-Dichloro-N-[5-chloro-3-(5-cyclopropylaminomethyl-2-furanylmethoxy)-2-pyrazinyl]-benzenesulphonamide], the melting point lay within 175 to 176 °C.
To `Nc1nc(COc2nc(Cl)cnc2NS(=O)(=O)c2cccc(Cl)c2Cl)co1` [Example 212, N-[3-[(2-amino-4-oxazolyl)methoxy]-5-chloro-2-pyrazinyl]-2,3-dichlorobenzenesulphonamide] belongs 137 °C.

Usually melting point stands for the temperature, or range, at which the solid turns liquid.
